Laboratory results taken from PubChem BioAssay (NCI).
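Protocol summary: plate cells (96-well), add compound at 5 concentrations, incubate 48 h, interpolate endpoints linearly. Definition used: TGI = concentration required for complete inhibition of growth.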

Tests used:
Test in all cases: NCI-60 cell line screen, 48 h
U251 CNS = system: U251 CNS
CCRF-CEM leukemia = system: CCRF-CEM leukemia
LXFL 529 NSCLC = system: LXFL 529 NSCLC
DLD-1 colon = system: DLD-1 colon
DMS 273 small cell lung = system: DMS 273 small cell lung
M19-MEL melanoma = system: M19-MEL melanoma
HOP-92 NSCLC = system: HOP-92 NSCLC
HCT-116 colon = system: HCT-116 colon
SNB-78 CNS = system: SNB-78 CNS
KM20L2 colon = system: KM20L2 colon
XF 498 CNS = system: XF 498 CNS
DMS 114 small cell lung = system: DMS 114 small cell lung
HOP-18 NSCLC = system: HOP-18 NSCLC

Cc1ccc(-n2c(C)nc3c2C(=O)c2ccccc2C3=O)cc1
TGI (U251 CNS): > 100 µM | TGI (CCRF-CEM leukemia): > 100 µM | TGI (LXFL 529 NSCLC): > 100 µM | TGI (DLD-1 colon): > 100 µM | TGI (DMS 273 small cell lung): > 100 µM | TGI (M19-MEL melanoma): 25.7 µM | TGI (HOP-92 NSCLC): > 100 µM | TGI (HCT-116 colon): 21.4 µM | TGI (SNB-78 CNS): > 100 µM | TGI (KM20L2 colon): > 100 µM | TGI (XF 498 CNS): > 100 µM

Cn1c2ccccc2n2c3nc4ccccc4nc3c(C#N)c12
TGI (DMS 114 small cell lung): > 100 µM | TGI (U251 CNS): > 100 µM | TGI (CCRF-CEM leukemia): > 100 µM | TGI (LXFL 529 NSCLC): > 100 µM | TGI (DLD-1 colon): > 100 µM | TGI (DMS 273 small cell lung): > 100 µM | TGI (M19-MEL melanoma): > 100 µM | TGI (HOP-92 NSCLC): > 100 µM | TGI (HCT-116 colon): > 100 µM | TGI (HOP-18 NSCLC): > 100 µM | TGI (XF 498 CNS): > 100 µM

COC(=O)c1ccc(OCc2ccc3oc(=O)c(-c4ccccc4)nc3c2)cc1
TGI (DMS 114 small cell lung): > 100 µM | TGI (U251 CNS): > 100 µM | TGI (CCRF-CEM leukemia): 72.7 µM | TGI (DLD-1 colon): 38.4 µM | TGI (DMS 273 small cell lung): > 100 µM | TGI (M19-MEL melanoma): > 100 µM | TGI (HCT-116 colon): > 100 µM | TGI (HOP-18 NSCLC): > 100 µM | TGI (SNB-78 CNS): > 100 µM | TGI (XF 498 CNS): > 100 µM

CC1=C(N2CC2)C(=O)c2nc3n(c2C1=O)CCC3O (stereo unspecified)
TGI (DMS 114 small cell lung): 2.68 µM | TGI (U251 CNS): 0.962 µM | TGI (CCRF-CEM leukemia): 13.4 µM | TGI (LXFL 529 NSCLC): 2.44 µM | TGI (DMS 273 small cell lung): 1.68 µM | TGI (M19-MEL melanoma): 3.57 µM | TGI (HOP-92 NSCLC): 5.72 µM | TGI (HCT-116 colon): 1.52 µM | TGI (HOP-18 NSCLC): > 100 µM | TGI (SNB-78 CNS): 0.131 µM | TGI (KM20L2 colon): 5.95 µM | TGI (XF 498 CNS): 29.8 µM

CC1=C2N3C[C@@H](n4c(=O)n(C)c(=O)n43)C23CCC1n1c(=O)n(C)c(=O)n13
TGI (DMS 114 small cell lung): 76.3 µM | TGI (CCRF-CEM leukemia): > 100 µM | TGI (LXFL 529 NSCLC): > 100 µM | TGI (DLD-1 colon): > 100 µM | TGI (DMS 273 small cell lung): > 100 µM | TGI (M19-MEL melanoma): > 100 µM | TGI (HOP-18 NSCLC): > 100 µM | TGI (SNB-78 CNS): > 100 µM | TGI (KM20L2 colon): > 100 µM | TGI (XF 498 CNS): > 100 µM

COc1cc(C(C#N)NNC(=O)c2ccccc2O)ccc1O (stereo unspecified)
TGI (U251 CNS): > 100 µM | TGI (CCRF-CEM leukemia): > 100 µM | TGI (LXFL 529 NSCLC): > 100 µM | TGI (DLD-1 colon): > 100 µM | TGI (M19-MEL melanoma): > 100 µM | TGI (HOP-92 NSCLC): 97.3 µM | TGI (HCT-116 colon): > 100 µM | TGI (HOP-18 NSCLC): 97.9 µM | TGI (SNB-78 CNS): > 100 µM | TGI (KM20L2 colon): > 100 µM

CCCc1ccc(N=Cc2cc(OC)c(OC)c(OC)c2)cc1
TGI (DMS 114 small cell lung): > 60.6 µM | TGI (U251 CNS): > 100 µM | TGI (CCRF-CEM leukemia): > 100 µM | TGI (LXFL 529 NSCLC): > 100 µM | TGI (DLD-1 colon): > 100 µM | TGI (DMS 273 small cell lung): > 100 µM | TGI (M19-MEL melanoma): > 100 µM | TGI (HOP-92 NSCLC): > 100 µM | TGI (HCT-116 colon): > 100 µM | TGI (HOP-18 NSCLC): > 100 µM | TGI (SNB-78 CNS): > 100 µM | TGI (KM20L2 colon): > 100 µM | TGI (XF 498 CNS): > 100 µM

CCN(CC)CCNc1ccc(N=Nc2ccc(S(N)(=O)=O)cc2)c2ccccc12
TGI (U251 CNS): > 100 µM | TGI (CCRF-CEM leukemia): 38.3 µM | TGI (HOP-92 NSCLC): 35.9 µM | TGI (HCT-116 colon): > 100 µM

c1ccc2c(c1)SC1Sc3ccccc3[S+]21 (stereo unspecified)
TGI (U251 CNS): 45.5 µM | TGI (CCRF-CEM leukemia): 49.6 µM | TGI (HOP-92 NSCLC): 69.9 µM | TGI (HCT-116 colon): > 57 µM

CN(C)c1ccc(/C=C2\N=C(c3ccccc3)N(c3nc4c(Cl)cc(Cl)cc4s3)C2=O)cc1
TGI (U251 CNS): > 100 µM | TGI (CCRF-CEM leukemia): 23.6 µM | TGI (HOP-92 NSCLC): > 100 µM | TGI (HCT-116 colon): > 100 µM

CC(=O)Nc1ccc(Nc2nc(=O)[nH]c(=O)[nH]2)cc1
TGI (U251 CNS): > 100 µM | TGI (CCRF-CEM leukemia): > 100 µM | TGI (HOP-92 NSCLC): > 100 µM | TGI (HCT-116 colon): > 100 µM

Cc1cc2ccccc2c[n+]1CC(=O)CC([O-])(C(F)(F)F)C(F)(F)F
TGI (U251 CNS): > 100 µM | TGI (CCRF-CEM leukemia): > 100 µM | TGI (HOP-92 NSCLC): > 100 µM | TGI (HCT-116 colon): > 100 µM

CN(C)Cc1cc(N=Nc2ccc(Cl)c(Cl)c2)ccc1O
TGI (U251 CNS): 23.6 µM | TGI (CCRF-CEM leukemia): 20 µM | TGI (HOP-92 NSCLC): 22.3 µM | TGI (HCT-116 colon): 29.8 µM

CN(C)CCCOC(=O)C(O)(Cc1ccccc1)C1CC1 (stereo unspecified)
TGI (U251 CNS): > 100 µM | TGI (CCRF-CEM leukemia): > 100 µM | TGI (HOP-92 NSCLC): > 100 µM | TGI (HCT-116 colon): > 100 µM

COC1CCC(OC2CC(C3(C)CCC4(CC(O)C(C)C(C(C)/C=C(\C)C(=O)C(C)CC(C)C(=O)O)O4)O3)OC3(OC(C4OC(O)(CO)C(C)CC4C)CC3C)C2C)OC1C (stereo unspecified)
TGI (U251 CNS): 0.817 µM | TGI (CCRF-CEM leukemia): 0.509 µM | TGI (HOP-92 NSCLC): 2.77 µM | TGI (HCT-116 colon): 1.66 µM

COC(=O)/C=C1/OC(c2ccccc2)=C(Cl)C1=O
TGI (U251 CNS): 27.1 µM | TGI (CCRF-CEM leukemia): 19.9 µM | TGI (HOP-92 NSCLC): 42.7 µM | TGI (HCT-116 colon): 26.3 µM

COc1cc(C2c3cc4c(cc3OC(N3CCOCC3)C2C)OCO4)cc(OC)c1O (stereo unspecified)
TGI (U251 CNS): > 53.6 µM | TGI (CCRF-CEM leukemia): > 100 µM | TGI (HOP-92 NSCLC): > 65.3 µM | TGI (HCT-116 colon): 11.4 µM

CC(=O)C(=C(I)I)c1ccccc1
TGI (U251 CNS): 35.7 µM | TGI (CCRF-CEM leukemia): 31.7 µM | TGI (HOP-92 NSCLC): 64.5 µM | TGI (HCT-116 colon): 29.4 µM

O=C1CC(c2cccc(Cl)c2)n2cccc21 (stereo unspecified)
TGI (U251 CNS): > 100 µM | TGI (CCRF-CEM leukemia): > 100 µM | TGI (HOP-92 NSCLC): > 100 µM | TGI (HCT-116 colon): > 100 µM

COc1cccc(/C=C/C2=NN(c3cccc(S(=O)(=O)O)c3)C3(C2)SCC(=O)N3c2nc3ccccc3s2)c1 (stereo unspecified)
TGI (U251 CNS): > 100 µM | TGI (CCRF-CEM leukemia): 88.3 µM | TGI (HOP-92 NSCLC): > 100 µM | TGI (HCT-116 colon): > 100 µM

COc1cc2[nH]c(-c3ccccc3)cc(=O)c2cc1OC
TGI (U251 CNS): > 100 µM | TGI (CCRF-CEM leukemia): > 65.6 µM | TGI (HOP-92 NSCLC): > 100 µM | TGI (HCT-116 colon): > 49.7 µM

CC1=Nn2c(nc3sc4c(c3c2=O)CCCC4)SC1
TGI (U251 CNS): > 100 µM | TGI (CCRF-CEM leukemia): > 76.3 µM | TGI (HOP-92 NSCLC): > 100 µM | TGI (HCT-116 colon): > 100 µM

CC(NC(=O)c1ccc(OP(=O)(OCC2=CC(=O)c3ccccc3C2=O)N(C)CCCCCl)cc1)c1ccc(OCC2CCCCC2)c(C(N)=O)c1 (stereo unspecified)
TGI (U251 CNS): 22.3 µM | TGI (CCRF-CEM leukemia): 30.6 µM | TGI (HOP-92 NSCLC): 19.6 µM | TGI (HCT-116 colon): 27.5 µM
